Literature values as cited in paper PMC5028780, “Receptor and transporter binding and activity profiles of albiflorin extracted from Radix paeoniae Alba” (Scientific Reports, 2016).

Columns and labels:
[1] = test system: h5-HT2C receptors; conditions: reference not given; cited from earlier work
[2] = test system: 5-HT2C sites; set-up: method as in PMID 11454919, PMID 10621762; conditions: antagonist properties; cited from earlier work

| Compound | affinity for h5-HT2C receptors [1] | affinity at 5-HT2C sites [2] |
| --- | --- | --- |
| CCOc1ccccc1OC(c1ccccc1)C1CNCCO1 (stereo not drawn) [Reboxetine] | mild affinity |  |
| CN(C)CCCC1(c2ccc(F)cc2)OCc2cc(C#N)ccc21 (stereo not drawn) [citalopram] |  | modest affinities |
| CN(C)CCCN1c2ccccc2CCc2ccc(Cl)cc21 [clomipramine] |  | modest affinities |
